Test results published in patent publication US7772183B2 (Bristol-Myers Squibb Company, priority 2005, dated 2010).

What was measured:
[1] = biological target: T1, HCV NS3/4A protease complex, H77 strain (Hepatitis C virus genotype 1a, UniProt P27958, C1454S/C1711G); test: FRET peptide assay to monitor HCV NS3/4A proteolytic activity (H77 strain); format: biochemical
T1 construct: DNA encoding the recombinant HCV NS3/4A protease complex (amino acids 1027 to 1711) for these strains; inferred from the pET21b vector and Ni-NTA purification; made in house; host or cells: Escherichia coli BL21 (DE3), pET21b
T1 sequence (P27958 1027-1711 C1454S/C1711G, one chain of several): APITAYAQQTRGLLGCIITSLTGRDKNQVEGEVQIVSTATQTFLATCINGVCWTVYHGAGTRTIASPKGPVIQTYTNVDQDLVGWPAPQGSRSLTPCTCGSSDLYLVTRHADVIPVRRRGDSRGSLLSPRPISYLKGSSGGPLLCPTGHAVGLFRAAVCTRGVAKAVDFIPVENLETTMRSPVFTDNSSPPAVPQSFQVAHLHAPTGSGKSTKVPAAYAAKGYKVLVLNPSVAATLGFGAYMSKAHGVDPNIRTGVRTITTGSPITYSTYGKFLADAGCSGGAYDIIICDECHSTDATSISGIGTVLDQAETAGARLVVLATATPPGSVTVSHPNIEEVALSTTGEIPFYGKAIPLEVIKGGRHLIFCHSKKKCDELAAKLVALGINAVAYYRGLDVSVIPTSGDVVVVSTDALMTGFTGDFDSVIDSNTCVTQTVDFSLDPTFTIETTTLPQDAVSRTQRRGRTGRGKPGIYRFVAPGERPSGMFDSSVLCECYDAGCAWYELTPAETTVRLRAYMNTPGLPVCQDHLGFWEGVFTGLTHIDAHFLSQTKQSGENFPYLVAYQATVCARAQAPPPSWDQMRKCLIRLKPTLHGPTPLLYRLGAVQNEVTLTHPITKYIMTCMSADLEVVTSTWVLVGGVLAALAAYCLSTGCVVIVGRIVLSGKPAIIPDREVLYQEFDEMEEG
Text: HCV NS3 protease complexes, derived from the BMS strain, H77 strain or J4L6S strain, were generated, as described below. These purified recombinant proteins were generated for use in a homogeneous assay (see below) to provide an indication of how effective compounds of the present disclosure would be in inhibiting HCV NS3 proteolytic activity.
Serum from an HCV-infected patient was obtained from Dr. T. Wright, San Francisco Hospital. An engineered full-length cDNA (compliment deoxyribonucleic acid) template of the HCV genome (BMS strain) was constructed from DNA fragments obtained by reverse transcription-PCR (RT-PCR) of serum RNA (ribonucleic acid) and using primers selected on the basis of homology between other genotype 1a strains. From the determination of the entire genome sequence, a genotype 1a was assigned to the HCV isolate according to the classification of Simmonds et al. (See P Simmonds, K A Rose, S Graham, S W Chan, F McOmish, B C Dow, E A Follett, P L Yap and H Marsden, J. Clin. Microbiol., 31(6), 1493-1503 (1993)). […]

human liver cathepsin B = biological target: T2, human liver cathepsin B (Homo sapiens, UniProt P07858); test: Specificity assay, cathepsin B; format: biochemical; settings: read-out: Cathepsin B activity in the specificity assays
T2 construct: purchased Sigma or EMDbiosciences; host or cells: human liver (as named)
Description: The specificities of compounds of the present disclosure were determined against a variety of serine proteases: human neutrophil elastase (HNE), porcine pancreatic elastase (PPE) and human pancreatic chymotrypsin and one cysteine protease: human liver cathepsin B. In all cases, a 96-well plate format protocol using colorimetric p-nitroaniline (pNA) substrate or fluorometric Amino-Methyl-Coumarin (AMC) substrate, specific for each enzyme was used as described previously (PCT Patent Application No. WO 00/09543) with some modifications. All enzymes were purchased from Sigma or EMDbiosciences while the substrates were from Bachem.
Each pNA assay included a 2 h enzyme-inhibitor pre-incubation at room temperature followed by addition of substrate and hydrolysis to ˜15% conversion as measured on a Spectramax Pro microplate reader. The cathepsin B assay was initiated by adding substrate to a 10 min enzyme-inhibitor pre-incubation at room temperature, and the assay plate measured immediately using the Cytofluor Series 4000. Compound concentrations varied from 100 to 0.4 μM depending on their potency.
The final conditions for each assay were as follows: […]
The percentage of inhibition was calculated using the formula: [1−((UVinh−UVblank)/(UVctl−UVblank))]×100 […]

For `CC(C)(C)OC(=O)N[C@H]1CCCCC/C=C\[C@@H]2C[C@@]2(C(=O)NS(=O)(=O)C2CC2)NC(=O)[C@@H]2C[C@@H](OC(=O)c3ccc(C#N)cc3)CN2C1=O` [Compound 26, 18-(4-cyanobenzoyloxy)-14-tert-butoxycarbonylamino-4-cyclopropylsulfonylaminocarbonyl-2,15-dioxo-3,16-diazatricyclo-[14.3.0.0^4,6]-nonadec-7-ene], the IC50 [1] was 0.53 nM and the IC50 (human liver cathepsin B) was ≥ 100000 nM.
